Assay results published in patent US8486900B2, “Method for preparing a Centella asiatica extract rich in madecassoside and in terminoloside” (Bayer Consumer Care AG, priority 2002, dated 2013).

Tests used:
[1] = test system: IL-1α; assay: IFN-γ-induced intracellular IL-1α production by normal human keratinocytes; type: cell-based; settings: for IL-1α (intracellular): K02-1H6, IFN-γ 1000 U/ml, 48 h + 24 h
Procedure: (§1) In order to evaluate the anti-inflammatory activity of terminoloside, of madecassoside and of the mixture of heterosides, we studied the modulatory effects of these three active agents with respect to the production and release of proinflammatory epidermal cytokines (IL-1α, IL-8, PGE-2) by human keratinocytes in culture, subjected to an irritative stress induced either with interferon-gamma (IFN-γ) or with PMA. Human keratinocytes were isolated from human skin. The cells were cultured in serum-free KGM medium (Keratinocyte Growth Medium, sold by the company Clonetics®), according to the usual techniques set up in the laboratory, at 37° C. in a humid air-CO2 (95%-5%) atmosphere. The cells were seeded into 25 cm^2 flasks and passaged regularly before reaching confluency. The principle of the assay is based on evaluating the production of proinflammatory cytokines by human keratinocytes, in response to an irritative stress. The method is based on measuring the intracellular amount of IL-1α and of the amounts of IL-8 and of PGE-2 released into the extracellular medium by keratinocytes cultured in the absence and in the presence of the products being studied, and stimulated even with interferon-gamma (IFN-γ) or with PMA (phorbol-12-myristate-13-acetate).
(§2) The study was carried out on keratinocytes isolated from foreskin of young children (strain K02-1H6).
(§3) 1. Treatment of the cells for 48 h with the product being studied before induction of the irritative stress; 2. induction of the irritative stress: IFN-γ (1000 U/ml); 3. incubation of the “activated” cells, for 24 h, in the presence of the product being studied; 4. assay: IL-8 (extracellular) and IL-1α (intracellular). Cellular protein assay.
Tables 34 to 36 below group together the intracellular amounts of IL-1α after activation of the cells (+IFN-γ), and the basal amount (−IFN-γ). The IFN-γ-induced production of IL-1α and the anti-inflammatory activity (AIA) were calculated for each concentration according to: Il-1α production=IL-1α(+IFN)−IL-1α(−IFN) AIA=[(IL-1α production(control cells)−IL-1α production(treated cells)/IL-1α production(control cells)]×100

[2] = test system: IL-8; assay: IFN-γ-induced release of IL-8 by normal human keratinocytes; type: cell-based; settings: for IL-8: Example 12, K02-1H6, IFN-γ 1000 U/ml, 48 h + 24 h
Procedure: as §1, §2, §3
Tables 32 to 34 below group together the amounts of IL-8 obtained after activation of the cells (+IFN-γ), and also the basal amounts (−IFN-γ). The IFN-γ-induced production of IL-8 and the anti-inflammatory activity (AIA) were calculated, for each concentration of active agent, according to: AIA=[(IL-8(control cells+IFN)−[…]/IL-8(control cells+IFN)]×100

CC1OC(O[C@@H]2C(CO)OC(OCC3OC(OC(=O)C4CC(C)(C)CC5C6=CCC7C(CC(O)C8C(C)(CO)C(O)C(O)CC78C)C6(C)CCC45)[C@@H](O)C(O)[C@@H]3O)[C@@H](O)C2O)[C@@H](O)C(O)[C@H]1O (stereo partly drawn) [Terminoloside, 1-[O-α-L-rhamnopyranosyl-(1-4)-O-β-glucopyranosol-(1-6)]-O-β-D-glucopyranose 2α,3β,6β,23-tetrahydroxyolea-12-en-28-oate]
IL-1α production (+IFN minus −IFN) ([1]; 0.1 mg/ml): 6.07 | IL-1α production (+IFN minus −IFN) ([1]; 0.25 mg/ml): 5.37 | IL-1α production (+IFN minus −IFN) ([1]; 0.5 mg/ml): 4.60 | IL-1α production (+IFN minus −IFN) ([1]; 1 mg/ml): 2.31 | inhibition at 100 µg/mL ([1]; Homo sapiens, Keratinocyte, IFN-γ 1000 U/ml, 0.1 mg/ml, read-out: Anti-inflammatory activity (%), IL-1α): 17% | inhibition at 250 µg/mL ([1]; Homo sapiens, Keratinocyte, IFN-γ 1000 U/ml, 0.25 mg/ml, read-out: Anti-inflammatory activity (%), IL-1α): 27% | inhibition at 500 µg/mL ([1]; Homo sapiens, Keratinocyte, IFN-γ 1000 U/ml, 0.5 mg/ml, read-out: Anti-inflammatory activity (%), IL-1α): 37% | inhibition at 1000 µg/mL ([1]; Homo sapiens, Keratinocyte, IFN-γ 1000 U/ml, 1 mg/ml, read-out: Anti-inflammatory activity (%), IL-1α): 68% | IL-1α (intracellular) ([1]; 0.1 mg/ml): 8.78 pg/μg prot | IL-1α (intracellular) ([1]; 0.25 mg/ml): 8.08 pg/μg prot | IL-1α (intracellular) ([1]; 0.5 mg/ml): 7.31 pg/μg prot | IL-1α (intracellular) ([1]; 1 mg/ml): 5.02 pg/μg prot | IL-8 ([2]; 0.1 mg/ml): 0.862 pg/μg prot | IL-8 ([2]; 0.25 mg/ml): 0.762 pg/μg prot | IL-8 ([2]; 0.5 mg/ml): 0.708 pg/μg prot | IL-8 ([2]; 1 mg/ml): 0.492 pg/μg prot | inhibition at 100 µg/mL ([2]; Homo sapiens, Keratinocyte, Example 12, IFN-γ 1000 U/ml, 0.1 mg/ml, read-out: Anti-inflammatory activity (%), IL-8): 0% | inhibition at 250 µg/mL ([2]; Homo sapiens, Keratinocyte, Example 12, IFN-γ 1000 U/ml, 0.25 mg/ml, read-out: Anti-inflammatory activity (%), IL-8): 9% | inhibition at 500 µg/mL ([2]; Homo sapiens, Keratinocyte, Example 12, IFN-γ 1000 U/ml, 0.5 mg/ml, read-out: Anti-inflammatory activity (%), IL-8): 15% | inhibition at 1000 µg/mL ([2]; Homo sapiens, Keratinocyte, Example 12, IFN-γ 1000 U/ml, 1 mg/ml, read-out: Anti-inflammatory activity (%), IL-8): 42%
